Assay results reported in ChEMBL document CHEMBL1201862, “PubChem BioAssay data set” (2004).
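Compound exposure: 48 hours, 5 concentrations, 96-well plates. GI50 is the concentration that inhibits growth by half.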 Active and inactive are the calls of the source. Rule as the data show it: active = GI50 up to about 1.1 µM and inactive = higher.

Key:
Test in all cases: NCI-60 cell line screen, 48 h
SW-620 = tested on: SW-620
NCI-H522 = tested on: NCI-H522
NCI/ADR-RES = tested on: NCI/ADR-RES
SNB-19 = tested on: SNB-19
OVCAR-8 = tested on: OVCAR-8
OVCAR-5 = tested on: OVCAR-5
SF-268 = tested on: SF-268
DU-145 = tested on: DU-145
HOP-62 = tested on: HOP-62
HT-29 = tested on: HT-29
SK-MEL-2 = tested on: SK-MEL-2
PC-3 = tested on: PC-3
BT-549 = tested on: BT-549
LOX IMVI = tested on: LOX IMVI
ACHN = tested on: ACHN
OVCAR-3 = tested on: OVCAR-3
HOP-92 = tested on: HOP-92
786-0 = tested on: 786-0
SN12C = tested on: SN12C
SK-MEL-28 = tested on: SK-MEL-28

| SMILES | GI50 (SW-620) | GI50 (NCI-H522) | GI50 (NCI/ADR-RES) | GI50 (SNB-19) | GI50 (OVCAR-8) | GI50 (OVCAR-5) | GI50 (SF-268) | GI50 (DU-145) | GI50 (HOP-62) | GI50 (HT-29) | GI50 (SK-MEL-2) | GI50 (PC-3) | GI50 (BT-549) | GI50 (LOX IMVI) | GI50 (ACHN) | GI50 (OVCAR-3) | GI50 (HOP-92) | GI50 (786-0) | GI50 (SN12C) | GI50 (SK-MEL-28) |
| --- | --- | --- | --- | --- | --- | --- | --- | --- | --- | --- | --- | --- | --- | --- | --- | --- | --- | --- | --- | --- |
| COc1ccc2c(c1OC)OCC(CN(C)C)C2=O (stereo not given) | 7.45 µM (inactive) | 0.187 µM (active) | 27.7 µM (inactive) | > 100 µM (inactive) | 22.1 µM (inactive) | 19.1 µM (inactive) | 25.4 µM (inactive) | 18.8 µM (inactive) | > 51.8 µM (inactive) | 15.4 µM (inactive) | 16.7 µM (inactive) | 18.7 µM (inactive) | 19.4 µM (inactive) | 14.3 µM (inactive) | 17.7 µM (inactive) | 21.5 µM (inactive) | 4.99 µM (inactive) | 12.6 µM (inactive) | 18.5 µM (inactive) | 17.4 µM (inactive) |
| O=C1NC(=O)C(CC(C(=O)C(=O)Nc2ccccc2Cl)C(=O)c2ccc3ccccc3c2)C(=O)N1 (stereo not given) | > 100 µM (inactive) | > 100 µM (inactive) | > 100 µM (inactive) | > 100 µM (inactive) | > 100 µM (inactive) | > 100 µM (inactive) | > 100 µM (inactive) | > 100 µM (inactive) | > 100 µM (inactive) | > 100 µM (inactive) | > 100 µM (inactive) | > 100 µM (inactive) | > 100 µM (inactive) | > 100 µM (inactive) | > 100 µM (inactive) | > 100 µM (inactive) | 61.9 µM (inactive) | > 100 µM (inactive) | > 100 µM (inactive) | > 100 µM (inactive) |
| COC(=O)[C@]12CC[C@H]3CN(S(=O)(=O)c4ccc(C)cc4)[C@H]([C@H]31)[C@H](c1ccco1)N2S(=O)(=O)c1ccc(C)cc1 | 70.1 µM (inactive) | 29.9 µM (inactive) | 29 µM (inactive) | > 100 µM (inactive) | 27.8 µM (inactive) | > 100 µM (inactive) | 42.3 µM (inactive) | 40.6 µM (inactive) | 66.4 µM (inactive) | 38.8 µM (inactive) | 29.2 µM (inactive) | 28.8 µM (inactive) | 30.1 µM (inactive) | 34.7 µM (inactive) | 39.7 µM (inactive) | 56.2 µM (inactive) | 10.1 µM (inactive) | 59.7 µM (inactive) | 37.6 µM (inactive) | 51.4 µM (inactive) |
| C/C1=C\CC/C(C)=C/C=C(/C(C)C)CC/C(C(=O)O)=C/CC1 [CROTOCEMBRANEIC ACID] | 42.3 µM (inactive) | 38.1 µM (inactive) | 44.8 µM (inactive) | 53.3 µM (inactive) | 66.2 µM (inactive) | > 100 µM (inactive) | 72.8 µM (inactive) | 61.2 µM (inactive) | 29.6 µM (inactive) | 46.7 µM (inactive) | 25.7 µM (inactive) | 40.2 µM (inactive) | 61.5 µM (inactive) | 54.8 µM (inactive) | 34.5 µM (inactive) | 22.9 µM (inactive) | 92.3 µM (inactive) | 55.7 µM (inactive) | 45.3 µM (inactive) | > 100 µM (inactive) |
| Cc1cccc(CNc2[nH]cnc3nncc2-3)c1 | > 100 µM (inactive) | 56.5 µM (inactive) | 90.2 µM (inactive) | > 100 µM (inactive) | 49.1 µM (inactive) | 40.4 µM (inactive) | > 100 µM (inactive) | > 100 µM (inactive) | > 100 µM (inactive) | > 100 µM (inactive) | > 100 µM (inactive) | > 100 µM (inactive) | > 100 µM (inactive) | > 100 µM (inactive) | 75.7 µM (inactive) | > 100 µM (inactive) | 40.5 µM (inactive) | > 100 µM (inactive) | 72.8 µM (inactive) | > 100 µM (inactive) |
| O=CC1OC(=O)c2cc(O)c(O)c(O)c2-c2c(cc(O)c(O)c2O)C(=O)OC1C(O)C(O)CO (stereo not given) | 17.1 µM (inactive) | 31 µM (inactive) | 76.9 µM (inactive) | > 100 µM (inactive) | 19.8 µM (inactive) | > 100 µM (inactive) | > 100 µM (inactive) | > 100 µM (inactive) | 63.2 µM (inactive) | 22 µM (inactive) | 15.4 µM (inactive) | 16.2 µM (inactive) | 51.4 µM (inactive) | 15.4 µM (inactive) | 43.6 µM (inactive) | 71 µM (inactive) | > 100 µM (inactive) | > 100 µM (inactive) | 28.5 µM (inactive) | 83.4 µM (inactive) |
